Laboratory results published in ChEMBL document CHEMBL5149973, “Agaricus bisporus-Derived Glucosamine Hydrochloride Facilitates Skeletal Injury Repair through Bmp Signaling in Zebrafish Osteoporosis Model” (J Nat Prod, 2021).
Activity calls are given as the source filed them. No cut-off for these calls is given here.

What was measured:
[1] = system: Osteoblast; experiment: Induction of osteoblast differentiation in transgenic osx mCherry Zebrafish embryo assessed as increase in Sox9a mRNA expression in fin at 0.1 % measured after 15 days by semiquantitative PCR analysis; type: functional, tissue-based; conditions: Danio rerio, time 15.0 day
[2] = Induction of Zebrafish embryo skeletal development assessed as ventralized embryos at 0.3 % measured at 24 hrs post fertilization relative to control; type: functional, Danio rerio
[3] = system: Osteoblast; experiment: Induction of osteoblast differentiation in Zebrafish embryo assessed as upregulation of sox9b gene expression in head measured at 0.75 to 72 hrs post fertilization at 0.05 to 0.3 % by ELISA analysis; type: functional, tissue-based; conditions: Danio rerio, dose 0.05-0.3 %, time 0.75-72 hrs
[4] = species on record: Danio rerio; experiment: Induction of Zebrafish embryo skeletal development assessed as Bmp2b localization in cytoplasm at 0.1 % measured at 24 to 72 hrs post fertilization; type: functional, tissue-based; conditions: time 24-72 hrs
[5] = species on record: Danio rerio; experiment: Suppression of Bmp signaling in Zebrafish embryo assessed as reduction in indistinctive tail tissue at 0.1 % measured at 26 hrs post fertilization in presence of dorsomorphin; type: functional; design: scale not given: the % may be the effect or the level left
[6] = species on record: Danio rerio; experiment: Induction of Zebrafish embryo skeletal development assessed as increase in Bmp4 mRNA expression level in bud region at 0.1 to 0.3 % measured at 24 hrs post fertilization by ISH analysis; type: functional, tissue-based; conditions: dose 0.1-0.3 %
[7] = species on record: Danio rerio; experiment: Induction of Zebrafish embryo skeletal development assessed as nuclear localization of p-Smad5 in tail at 0.1 % measured at 24 to 72 hrs post fertilization by DAPI staining based analysis; type: functional, tissue-based; conditions: time 24-72 hrs
[8] = species on record: Danio rerio; experiment: Anti-osteoporosis activity in FAC-induced skeletal injury Zebrafish larvae assessed as rescue of bone damage measured for 10 day post fertilization by Alizarin red staining based assay; type: functional, organism-based; conditions: Larva
[9] = Induction of Zebrafish embryo skeletal development assessed as mortality rate of embryo at 0.5 % measured after 72 hrs post fertilization by Alcian blue staining based assay; type: functional, Danio rerio
[10] = system: Osteoblast; experiment: Induction of osteoblast differentiation in transgenic osx mCherry Zebrafish embryo assessed as increase in Col1a2 mRNA expression in fin at 0.1 % measured after 15 days by semiquantitative PCR analysis; type: functional, tissue-based; conditions: Danio rerio, time 15.0 day
[11] = species on record: Danio rerio; experiment: Suppression of Bmp signaling in Zebrafish embryos assessed as decrease in Sox9b gene expression level at 0.1 % measured at 26 hrs post fertilization by semiquantitative PCR analysis; type: functional, tissue-based; conditions: Embryo
[12] = Induction of Zebrafish embryo skeletal development assessed as mortality rate of embryo at 0.05 % measured after 72 hrs post fertilization by Alcian blue staining based assay; type: functional, Danio rerio
[13] = species on record: Danio rerio; experiment: Induction of Zebrafish embryo skeletal development assessed as increase in Bmp4 mRNA expression level in head at 0.1 to 0.3 % measured at 24 hrs post fertilization by ISH analysis; type: functional, tissue-based; conditions: dose 0.1-0.3 %
[14] = species on record: Danio rerio; experiment: Induction of Zebrafish embryo skeletal development assessed as upregulation of col10a1a gene expression in operculum at 0.01 to 0.3 % measured after 72 hrs post fertilization by […] analysis; type: functional; conditions: dose 0.01-0.3 %
[15] = Induction of Zebrafish embryo skeletal development assessed as fatality rate measured at percentage concentration incubated after 72 hrs post fertilization by Alcian blue staining based assay; type: functional, Danio rerio
[16] = system: Osteoblast; experiment: Induction of osteoblast differentiation in transgenic osx mCherry Zebrafish embryo assessed as increase in Sox9b mRNA expression in fin at 0.1 % measured after 15 days by semiquantitative PCR analysis; type: functional, tissue-based; conditions: Danio rerio, time 15.0 day
[17] = species on record: Danio rerio; experiment: Induction of Zebrafish Larva cartilage development assessed as increase in bone mineralization at 0.05 to 0.3 % measured at 6 days post fertilization by Alizarin red staining based assay; type: functional; conditions: dose 0.05-0.3 %, time 6.0 day
[18] = Induction of Zebrafish embryo skeletal development assessed as mortality rate of embryo at 0.1 % measured after 72 hrs post fertilization by Alcian blue staining based assay; type: functional, Danio rerio
[19] = species on record: Danio rerio; experiment: Induction of Zebrafish embryo skeletal development assessed as upregulation of […] gene expression in dent at 0.01 to 0.3 % measured after 72 hrs post fertilization by […] analysis; type: functional, tissue-based; conditions: dose 0.01-0.3 %
[20] = species on record: Danio rerio; experiment: Induction of Zebrafish embryo skeletal development assessed as increase in Bmp2b mRNA expression level expanded from ventral side to dorsal side at 0.1 to 0.3 % measured at 24 hrs post fertilization by ISH analysis; type: functional, tissue-based; conditions: dose 0.1-0.3 %
[21] = species on record: Danio rerio; experiment: Induction of Zebrafish embryo skeletal development assessed as increase in Smad1 gene expression level in coccygeal vertebra at 0.1 % measured for 0.75 to 24 hrs post fertilization by ISH analysis; type: functional, tissue-based; conditions: time 0.75-24 hrs
[22] = system: Osteoblast; experiment: Induction of osteoblast differentiation in Zebrafish embryo assessed as upregulation of runx2b gene expression in operculum measured at 0.75 to 72 hrs post fertilization at 0.05 to 0.3 % by […] analysis; type: functional, tissue-based; conditions: Danio rerio, dose 0.05-0.3 %, time 0.75-72 hrs
[23] = Induction of Zebrafish embryo skeletal development assessed as mortality rate of embryo at 0.01 % measured after 72 hrs post fertilization by Alcian blue staining based assay; type: functional, Danio rerio
[24] = species on record: Danio rerio; experiment: Anti-osteoporosis activity in FAC-induced skeletal injury Zebrafish larvae assessed as increase in Sox9a mRNA expression level measured for 10 day post fertilization by semiquantitative-PCR analysis; type: functional, organism-based; conditions: Larva
[25] = species on record: Danio rerio; experiment: Induction of Zebrafish embryo skeletal development assessed as nuclear localization of p-Smad5 in head at 0.1 % measured at 24 to 72 hrs post fertilization by DAPI staining based analysis; type: functional, tissue-based; conditions: time 24-72 hrs
[26] = species on record: Danio rerio; experiment: Induction of Zebrafish embryo skeletal development assessed as upregulation of col10a1a gene expression in palatoquadrate at 0.01 to 0.3 % measured after 72 hrs post fertilization by […] analysis; type: functional, tissue-based; conditions: dose 0.01-0.3 %
[27] = species on record: Danio rerio; experiment: Induction of Zebrafish embryo skeletal development assessed as increase in Bmp2b mRNA expression level in head at 0.1 % measured at 72 hrs post fertilization; type: functional, tissue-based
[28] = species on record: Danio rerio; experiment: Anti-osteoporosis activity in FAC-induced skeletal injury Zebrafish assessed as rescue of skeletal density in spine at 0.1 % measured for 10 day post fertilization; type: functional, organism-based
[29] = species on record: Danio rerio; experiment: Induction of Zebrafish embryo skeletal development assessed as increase in Bmp2b mRNA expression level in gastrula stage at 0.05 to 0.1 % measured at 24 hrs post fertilization by ISH analysis; type: functional, tissue-based; conditions: dose 0.05-0.1 %
[30] = Induction of Zebrafish Larva caudal fin regeneration measured for 15 days by Calcein staining based assay; type: functional, Danio rerio; conditions: time 15 day
[31] = species on record: Danio rerio; experiment: Anti-osteoporosis activity in FAC-induced skeletal injury Zebrafish larvae assessed as increase in BGP mRNA expression level measured for 10 day post fertilization by semiquantitative-PCR analysis; type: functional, organism-based; conditions: Larva
[32] = species on record: Danio rerio; experiment: Induction of Zebrafish embryo skeletal development assessed as increase in Bmp7a mRNA expression level in gastrula stage at 0.05 to 0.1 % measured at 24 hrs post fertilization by ISH analysis; type: functional, tissue-based; conditions: dose 0.05-0.1 %
[33] = Induction of Zebrafish Larva cartilage development assessed as increase in bone mineralization at 0.1 % measured at 6 days post fertilization by Alizarin red staining based assay; type: functional, Danio rerio; conditions: time 6 day
[34] = species on record: Danio rerio; experiment: Anti-osteoporosis activity in FAC-induced skeletal injury Zebrafish assessed as increase in cumulative bone optical density in caudal fins at 0.1 % measured for 10 day post fertilization; type: functional, organism-based
[35] = species on record: Danio rerio; experiment: Induction of Zebrafish embryo skeletal development assessed as upregulation of col10a1a gene expression in head bone at 0.01 to 0.3 % measured after 72 hrs post fertilization by […] analysis; type: functional, tissue-based; conditions: dose 0.01-0.3 %

For `Cl.N[C@@H]1[C@@H](O)[C@H](O)[C@@H](CO)O[C@H]1O`, which Activity [1] is on record?
Its Activity is “Active”.

What about the Activity [2] of the same compound?
Its Activity is 20%.

And the Activity [3]?
Its Activity is “Active”.

What about the Activity [4] of the same compound?
The Activity was “Active”.

What about the Activity [5] of the same compound?
The Activity was 20%.

What about the Activity [6] of the same compound?
The Activity was “Active”.

What about the Activity [7] of the same compound?
The Activity was “Active”.

What about the Activity [8] of the same compound?
Its Activity is “Active”.

And the Activity [9]?
Its Activity is 100%.

What about the Activity [10] of the same compound?
Its Activity is “Active”.

And the Activity [11]?
Its Activity is “Active”.

And the Activity [12]?
The Activity was 16%.

What about the Activity [13] of the same compound?
Its Activity is “Active”.

And the Activity [14]?
The Activity was “Active”.

And the IC50 [15]?
The IC50 was 0.324%.

And the Activity [16]?
Its Activity is “Active”.

What about the Activity [17] of the same compound?
The Activity was “Active”.

And the Activity [18]?
Its Activity is 24%.

And the Activity [19]?
Its Activity is “Active”.

What about the Activity [20] of the same compound?
The Activity was “Active”.

And the Activity [21]?
The Activity was “Active”.

And the Activity [22]?
Its Activity is “Active”.

What about the Activity [23] of the same compound?
The Activity was 12%.

What about the Activity [24] of the same compound?
The Activity was “Active”.

And the Activity [25]?
The Activity was “Active”.

And the Activity [26]?
The Activity was “Active”.

And the Activity [27]?
The Activity was “Active”.

What about the Activity [28] of the same compound?
Its Activity is “Active”.

What about the Activity [29] of the same compound?
Its Activity is “Active”.

And the Activity [30]?
Its Activity is 50%.

What about the Activity [31] of the same compound?
Its Activity is “Active”.

And the Activity [32]?
Its Activity is “Active”.

What about the Activity [33] of the same compound?
The Activity was 88%.

What about the Activity [34] of the same compound?
The Activity was “Active”.

What about the Activity [35] of the same compound?
Its Activity is “Active”.
